In patent US20100298141A1, “SUBSTITUTED PYRIDINE N-OXIDE HERBICIDES” (E. I. DU PONT DE NEMOURS AND COMPANY, priority 2007, published 2010):

Key:
wheat = assay: Test A pre-/postemergence greenhouse test; type: in vivo, Triticum aestivum; details: for Wheat plant response rating: 0 to 100 scale
Method in brief: (§1)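 Planting was into mixed loam soil and sand; preemergence treatment followed as a directed soil spray. Concurrently, emerged plants (one- to two-leaf, 2–10 cm) received postemergence applications of identically formulated compound (non-phytotoxic solvent, surfactant). After approximately ten days under greenhouse conditions, injury was judged by eye against untreated plants.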

bermudagrass = assay: Test C pre-/postemergence test; type: in vivo, Cynodon dactylon
Method in brief: (§2)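 Compounds in a non-phytotoxic solvent with surfactant applied preemergence to seeded pots and, at the same time, postemergence to plants 2–18 cm tall (1- to 4-leaf stage). Paddy tests: pots flooded to 3 cm, compound applied into the water, depth held throughout.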

wild oat = assay: Test C pre-/postemergence test; type: in vivo, Avena fatua
Method in brief: as §2

Surinam grass = assay: Test C pre-/postemergence test; type: in vivo, Brachiaria decumbens
Method in brief: as §2

barnyardgrass = assay: Test C flooded paddy test; type: in vivo, Echinochloa crus-galli; details: Flood
Method in brief: (§3)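 Ratings were visual and made relative to untreated controls after 13 to 15 greenhouse days.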

velvetleaf [1] = assay: Test C pre-/postemergence test; type: in vivo, Abutilon theophrasti
Method in brief: as §2

giant foxtail [2] = assay: Test C pre-/postemergence test; type: in vivo, Setaria faberii
Method in brief: as §2

corn = assay: Test A pre-/postemergence greenhouse test; type: in vivo, Zea mays; details: for Corn plant response rating: 0 to 100 scale
Method in brief: as §1

giant foxtail [3] = assay: Test A pre-/postemergence greenhouse test; type: in vivo, Setaria faberi; details: for Foxtail, Giant plant response rating: 0 to 100 scale
Method in brief: as §1

redroot pigweed = assay: Test A pre-/postemergence greenhouse test; type: in vivo, Amaranthus retroflexus; details: for Pigweed plant response rating: 0 to 100 scale
Method in brief: as §1

lambsquarters = assay: Test C pre-/postemergence test; type: in vivo, Chenopodium album
Method in brief: as §2

velvetleaf [4] = assay: Test A pre-/postemergence greenhouse test; type: in vivo, Abutilon theophrasti; details: for Velvetleaf plant response rating: 0 to 100 scale
Method in brief: as §1

johnsongrass = assay: Test C pre-/postemergence test; type: in vivo, Sorghum halepense
Method in brief: as §2

duck salad = assay: Test C flooded paddy test; type: in vivo, Heteranthera limosa; details: Flood
Method in brief: as §3

eastern black nightshade = assay: Test C pre-/postemergence test; type: in vivo, Solanum ptycanthum
Method in brief: as §2

Goosegrass = assay: Test C pre-/postemergence test; type: in vivo, Eleusin indica
Method in brief: as §2

rice = assay: Test C flooded paddy test; type: in vivo, Oryza sativa; details: Flood
Method in brief: as §3

common ragweed = assay: Test C pre-/postemergence test; type: in vivo, Ambrosia elation
Method in brief: as §2

[5] = Postemergence, 125 g ai/ha, 0 is no effect, 100 is complete control
[6] = Postemergence, 500 g ai/ha, 0 is no effect, 100 is complete control
[7] = Preemergence, 125 g ai/ha, 0 no effect, 100 complete control
[8] = Preemergence, 500 g ai/ha, 0 to 100 scale where 0 is no effect and 100 is complete control
[9] = 125 g ai/ha, preemergence, scale 0 (no effect) to 100 (complete control)
[10] = Preemergence, 31 g ai/ha, scale 0 to 100 (0 no effect, 100 complete control)
[11] = preemergence, 250 g ai/ha, scale 0 (no effect) to 100 (complete control)
[12] = 62 g ai/ha, Preemergence, scale 0 to 100
[13] = 31 g ai/ha, scale 0 to 100 (0 no effect, 100 complete control)
[14] = 62 g ai/ha, scale 0 to 100, 0 no effect, 100 complete control, 13 to 15 days
[15] = 125 g ai/ha, scale 0 to 100, 0 no effect, 100 complete control, 13 to 15 days
[16] = 250 g ai/ha, scale 0 to 100, 0 no effect, 100 complete control, 13 to 15 days

Cn1nc(C(F)(F)F)c(C[S+]([O-])c2cc(F)cc[n+]2[O-])c1Cl (racemic) [Compound 42]
Wheat plant response rating (wheat; [5]): 40
Wheat plant response rating (wheat; [6]): 50
Wheat plant response rating (wheat; [7]): 20
Plant response rating, Wheat (wheat; [8]): 60
Bermudagrass plant response rating (bermudagrass; 62 g ai/ha, Preemergence, scale 0 to 100 (0 no effect, 100 complete control)): 100
Bermudagrass plant response rating (bermudagrass; [9]): 100
Plant response rating, Bermudagrass (bermudagrass; [10]): 70
Bermudagrass plant response rating (bermudagrass; [11]): 100
Oat, Wild plant response rating (wild oat; [12]): 5
Oat, Wild plant response rating (wild oat; [9]): 50
Plant response rating, Oat, Wild (wild oat; [10]): 0
Oat, Wild plant response rating (wild oat; [11]): 90
Surinam Grass plant response rating (Surinam grass; [12]): 80
Surinam Grass plant response rating (Surinam grass; [9]): 85
Plant response rating, Surinam Grass (Surinam grass; [10]): 60
Surinam Grass plant response rating (Surinam grass; [11]): 100
Plant response rating, Barnyardgrass (barnyardgrass; [13]): 0
Plant response rating, Barnyardgrass (barnyardgrass; [14]): 0
Plant response rating, Barnyardgrass (barnyardgrass; [15]): 40
Plant response rating, Barnyardgrass (barnyardgrass; [16]): 55
Velvetleaf plant response rating (velvetleaf [1]; [12]): 60
Velvetleaf plant response rating (velvetleaf [1]; [9]): 70
Plant response rating, Velvetleaf (velvetleaf [1]; [10]): 0
Velvetleaf plant response rating (velvetleaf [1]; [11]): 100
Foxtail, Giant plant response rating (giant foxtail [2]; [12]): 100
Foxtail, Giant plant response rating (giant foxtail [2]; [9]): 100
Plant response rating, Foxtail, Giant (giant foxtail [2]; [10]): 98
Foxtail, Giant plant response rating (giant foxtail [2]; [11]): 100
Corn plant response rating (corn; [5]): 0
Corn plant response rating (corn; [6]): 70
Corn plant response rating (corn; [7]): 0
Plant response rating, Corn (corn; [8]): 0
Foxtail, Giant plant response rating (giant foxtail [3]; [5]): 80
Foxtail, Giant plant response rating (giant foxtail [3]; [6]): 90
Foxtail, Giant plant response rating (giant foxtail [3]; [7]): 100
Plant response rating, Foxtail, Giant (giant foxtail [3]; [8]): 100
Pigweed plant response rating (redroot pigweed; [5]): 60
Pigweed plant response rating (redroot pigweed; [6]): 70
Pigweed plant response rating (redroot pigweed; [7]): 100
Plant response rating, Pigweed (redroot pigweed; [8]): 100
Lambsquarters plant response rating (lambsquarters; [12]): 100
Lambsquarters plant response rating (lambsquarters; [9]): 100
Plant response rating, Lambsquarters (lambsquarters; [10]): 80
Lambsquarters plant response rating (lambsquarters; [11]): 100
Velvetleaf plant response rating (velvetleaf [4]; [5]): 0
Velvetleaf plant response rating (velvetleaf [4]; [6]): 60
Velvetleaf plant response rating (velvetleaf [4]; [7]): 10
Plant response rating, Velvetleaf (velvetleaf [4]; [8]): 80
Johnsongrass plant response rating (johnsongrass; [12]): 98
Johnsongrass plant response rating (johnsongrass; [9]): 100
Plant response rating, Johnsongrass (johnsongrass; [10]): 55
Johnsongrass plant response rating (johnsongrass; [11]): 100
Plant response rating, Ducksalad (duck salad; [13]): 70
Plant response rating, Ducksalad (duck salad; [14]): 85
Plant response rating, Ducksalad (duck salad; [15]): 85
Plant response rating, Ducksalad (duck salad; [16]): 90
Nightshade plant response rating (eastern black nightshade; [12]): 80
Nightshade plant response rating (eastern black nightshade; [9]): 100
Plant response rating, Nightshade (eastern black nightshade; [10]): 80
Nightshade plant response rating (eastern black nightshade; [11]): 100
Goosegrass plant response rating (Goosegrass; [12]): 100
Goosegrass plant response rating (Goosegrass; [9]): 100
Plant response rating, Goosegrass (Goosegrass; [10]): 85
Goosegrass plant response rating (Goosegrass; [11]): 100
Plant response rating, Rice (rice; [13]): 0
Plant response rating, Rice (rice; [14]): 15
Plant response rating, Rice (rice; [15]): 25
Plant response rating, Rice (rice; [16]): 70
Ragweed plant response rating (common ragweed; [12]): 70
Ragweed plant response rating (common ragweed; [9]): 90
Plant response rating, Ragweed (common ragweed; [10]): 5
Ragweed plant response rating (common ragweed; [11]): 90
